Reference: patent US20260146035A1, “FUSED BICYCLIC COMPOUNDS AND THEIR USE AS MER AND AXL INHIBITORS” (DONG-A ST CO., LTD., priority 2022, published 2026)

Key:
human TYRO3 (455-end) = biological target: T1, human TYRO3 (455-end) (Homo sapiens, UniProt Q06418); assay: HTRF kinase activity biochemical assay, TYRO3; details: 10 μM ATP, 30 minutes pre-incubation; read-out: HTRF TYRO IC50
T1 construct: TYRO3 (455-end); purchased SignalChem, Canada
T1 sequence (Q06418 455-890 limits assumed): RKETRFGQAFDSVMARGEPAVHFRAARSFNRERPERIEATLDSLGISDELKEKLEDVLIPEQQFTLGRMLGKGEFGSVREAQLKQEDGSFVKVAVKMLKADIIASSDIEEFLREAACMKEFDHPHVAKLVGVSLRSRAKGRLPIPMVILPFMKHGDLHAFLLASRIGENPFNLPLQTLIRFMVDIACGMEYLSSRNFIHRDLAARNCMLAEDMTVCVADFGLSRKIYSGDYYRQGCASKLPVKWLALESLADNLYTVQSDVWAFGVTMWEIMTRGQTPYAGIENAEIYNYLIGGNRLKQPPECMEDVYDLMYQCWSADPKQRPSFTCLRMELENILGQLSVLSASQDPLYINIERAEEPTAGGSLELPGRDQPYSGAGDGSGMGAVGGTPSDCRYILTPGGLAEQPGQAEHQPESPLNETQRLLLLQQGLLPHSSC

human AXL (473-end) = biological target: T2, human AXL (473-end) (Homo sapiens, UniProt P30530); assay: HTRF kinase activity biochemical assay, AXL; details: 10 μM ATP, 30 minutes pre-incubation
T2 construct: human AXL (473-end); purchased SignalChem, Canada
T2 sequence (P30530 473-894 limits assumed): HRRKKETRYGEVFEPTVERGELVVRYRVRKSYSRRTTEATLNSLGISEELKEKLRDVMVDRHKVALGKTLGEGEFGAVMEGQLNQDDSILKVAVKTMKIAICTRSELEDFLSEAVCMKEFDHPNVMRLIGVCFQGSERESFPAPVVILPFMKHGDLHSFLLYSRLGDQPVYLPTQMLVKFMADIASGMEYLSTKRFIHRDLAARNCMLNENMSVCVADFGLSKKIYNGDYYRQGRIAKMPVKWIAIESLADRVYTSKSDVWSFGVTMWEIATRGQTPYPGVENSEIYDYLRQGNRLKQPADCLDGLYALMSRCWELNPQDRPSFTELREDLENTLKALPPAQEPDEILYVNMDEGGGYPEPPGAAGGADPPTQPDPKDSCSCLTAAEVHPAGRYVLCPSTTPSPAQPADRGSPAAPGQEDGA

human MER (528-end) = biological target: T3, human MER (528-end) (Homo sapiens, UniProt Q12866); assay: HTRF kinase activity biochemical assay, MER; details: 10 μM ATP, 30 minutes pre-incubation; read-out: HTRF MERTK IC50
T3 construct: human MER (528-end); purchased Camnabio, Japan
T3 sequence (Q12866 528-999 limits assumed): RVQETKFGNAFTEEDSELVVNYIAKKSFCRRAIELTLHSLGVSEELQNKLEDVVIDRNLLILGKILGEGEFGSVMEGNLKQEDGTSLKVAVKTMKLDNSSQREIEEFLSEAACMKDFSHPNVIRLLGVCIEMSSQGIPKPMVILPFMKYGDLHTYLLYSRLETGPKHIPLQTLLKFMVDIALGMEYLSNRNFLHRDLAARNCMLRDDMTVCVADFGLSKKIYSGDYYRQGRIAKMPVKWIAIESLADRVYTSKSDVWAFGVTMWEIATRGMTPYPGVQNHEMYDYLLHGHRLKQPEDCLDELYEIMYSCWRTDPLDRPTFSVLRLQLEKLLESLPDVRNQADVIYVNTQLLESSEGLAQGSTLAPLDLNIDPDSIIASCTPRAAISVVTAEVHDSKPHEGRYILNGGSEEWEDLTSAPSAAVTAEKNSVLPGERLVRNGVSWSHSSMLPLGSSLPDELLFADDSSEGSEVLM

Compound | IC50 (human TYRO3 (455-end)) | IC50 (human AXL (473-end)) | IC50 (human MER (528-end))
Cn1cc(-c2cnc(N)c(C(=O)N[C@H]3CCC[C@@H]3OCc3ccc(-c4ccc5c(c4)C(C)(C)CN5C4CCN(CCO)CC4)cc3)c2)cn1 [Example 13, 2-amino-N-{(1S,2S)-2-[(4-{1-[1-(2-hydroxyethyl)piperidin-4-yl]-3,3-dimethyl-2,3-dihydro-1H-indol-5-yl}phenyl)methoxy]cyclopentyl}-5-(1-methyl-1H-pyrazol-4-yl)pyridine-3-carboxamide] | 10 to 100 nM | < 10 nM | < 10 nM
Nc1ncc(-c2cncs2)cc1C(=O)N[C@H]1CCC[C@@H]1OCc1ccc(-c2ccc3c(c2)CC[C@@H]3N2CCN(CCO)CC2)cc1 [Example 176, 2-amino-N-{(1S,2S)-2-[(4-{(1S)-1-[4-(2-hydroxyethyl)piperazin-1-yl]-2,3-dihydro-1H-inden-5-yl}phenyl)methoxy]cyclopentyl}-5-(1,3-thiazol-5-yl)pyridine-3-carboxamide] | 10 to 100 nM | < 10 nM | < 10 nM
Cn1cc(-c2cnc(N)c(C(=O)N[C@H]3COC[C@@H]3OCc3ccc(-c4ccc5c(ccn5C5CCN(CCO)CC5)c4)cc3)c2)cn1 [Example 14, 2-amino-N-{(3S,4R)-4-[(4-{1-[1-(2-hydroxyethyl)piperidin-4-yl]-1H-indol-5-yl}phenyl)methoxy]oxolan-3-yl}-5-(1-methyl-1H-pyrazol-4-yl)pyridine-3-carboxamide] | > 1000 nM | 10 to 100 nM | < 10 nM
CC1(C)CC(N2CCN(CCO)CC2)c2ccc(-c3ccc(CO[C@H]4CCC[C@@H]4NC(=O)c4cc(-c5ccc(F)nc5)cnc4N)cc3)cc21 (stereo partly drawn) [Example 84, 6-amino-6′-fluoro-N-{(1S,2S)-2-[(4-{1-[4-(2-hydroxyethyl)piperazin-1-yl]-3,3-dimethyl-2,3-dihydro-1H-inden-5-yl}phenyl)methoxy]cyclopentyl}[3,3′-bipyridine]-5-carboxamide] | 10 to 100 nM | < 10 nM | < 10 nM
Cn1cc(-c2cnc(N)c(C(=O)N[C@H]3COC[C@@H]3OCc3ccc(-c4ccc5c(c4)CC[C@@H]5N4CCN(CCO)CC4)cc3)c2)cn1 [Example 45, 2-amino-N-{(3S,4R)-4-[(4-{(1S)-1-[4-(2-hydroxyethyl)piperazin-1-yl]-2,3-dihydro-1H-inden-5-yl}phenyl)methoxy]oxolan-3-yl}-5-(1-methyl-1H-pyrazol-4-yl)pyridine-3-carboxamide] | 100 to 1000 nM | < 10 nM | < 10 nM
Cn1cc(-c2cnc(N)c(C(=O)N[C@H]3CCC[C@@H]3OCc3ccc(-c4ccc5c(c4)C[C@H](F)[C@@H]5N4CCN(CCO)CC4)cc3)c2)cn1 (relative stereo) [Example 85, 2-amino-N-{(1S,2S)-2-[(4-{(1R*,2S*)-2-fluoro-1-[4-(2-hydroxyethyl)piperazin-1-yl]-2,3-dihydro-1H-inden-5-yl}phenyl)methoxy]cyclopentyl}-5-(1-methyl-1H-pyrazol-4-yl)pyridine-3-carboxamide] | 100 to 1000 nM | < 10 nM | < 10 nM
Cc1ncc(-c2cnc(N)c(C(=O)N[C@H]3CCC[C@@H]3OCc3ccc(-c4ccc5c(c4)CC[C@@H]5N4CCN(CCO)CC4)cc3)c2)s1 [Example 172, 2-amino-N-{(1S,2S)-2-[(4-{(1S)-1-[4-(2-hydroxyethyl)piperazin-1-yl]-2,3-dihydro-1H-inden-5-yl}phenyl)methoxy]cyclopentyl}-5-(2-methyl-1,3-thiazol-5-yl)pyridine-3-carboxamide] | 10 to 100 nM | < 10 nM | < 10 nM
Cn1cc(-c2cnc(N)c(C(=O)N[C@H]3CCC[C@@H]3OCc3ccc(-c4ccc5c(c4)C(C)(C)C[C@H]5N4CCN(CCO)CC4)cc3)c2)cn1 [Example 96, 2-amino-N-{(1S,2S)-2-[(4-{(1R)-1-[4-(2-hydroxyethyl)piperazin-1-yl]-3,3-dimethyl-2,3-dihydro-1H-inden-5-yl}phenyl)methoxy]cyclopentyl}-5-(1-methyl-1H-pyrazol-4-yl)pyridine-3-carboxamide] | > 1000 nM | 10 to 100 nM | 10 to 100 nM
